“Also recorded” adds a separate entry of the source. Like-named read-outs stand apart in the source and are kept apart here.
What was measured:
Z. mobilis TGT [1] = target: T1, Z. mobilis TGT (Zymomonas mobilis subsp. mobilis, UniProt P28720); experiment: TGT-catalyzed incorporation of radio-labeled guanine into tRNA (inhibition constants); type: biochemical
T1 construct: Strep-tag II (N, cleaved yes); made in house; host or cells: Escherichia coli
Method: The inhibition constants (Ki) of ligands 1 to 9, which are listed in Fig 2, were determined previously (except that of 4, which was determined in this study)[19, 20, 23, 26] via a well-established assay monitoring the TGT-catalyzed incorporation of radio-labeled guanine into tRNA. […] This substituent addresses the ribose-33/uracil-33 pocket by forming an H-bond to the main chain carbonyl of Ala232 (Fig 1 and S3 and S4 Figs).
The concentration of Z. mobilis TGT amounted to 9 nM, [8-^3H]-guanine was used at a (saturating) concentration of 10 μM and tRNA^Tyr at a concentration of 1.5 μM. Aliquots of 15 μL were withdrawn for scintillation counting every 60 minutes (in total four).
The Ki value was averaged over three measurements. The preparation of E.coli tRNA^Tyr (ECYC2) via in vitro transcription was carried out using the RiboMAX™ Large Scale RNA Production System-T7 (Promega) according to the vendor´s protocol.

TGT homodimer = test system: T2, TGT homodimer; experiment: Native ESI-MS of TGT:ligand 1:10 mixtures (dimer destabilization); set-up: species or system Zymomonas mobilis; details: for Relative proportion of TGT monomers: 2.5 µM TGT and 25 µM inhibitor (1:10), 1 M NH4Ac pH 7.5, without ligand 3.3 ± 0.7 %; for effect on TGT dimer stability / monomer proportion, in words: compared to measurements in the absence of any ligand, TGT:ligand 1:10
T2 construct: Strep-tag II (N, cleaved yes); made in house; host or cells: Escherichia coli
Method: In order to gain insights into the dimer disturbing potential seen in the crystal structures with the different ligands and to collect evidence for such a behavior also present in solution, native ESI-MS was performed. This technique enables to monitor the oligomerization state of TGT at equilibrium under non-denaturing conditions, in the absence or presence of saturating ligand concentrations. […] To ensure reliability, these comparative experiments were thus carried out adhering to strictly similar conditions (see Materials and methods).
Relative proportions of TGT-monomer signals extracted from individual 1:10 TGT:ligand mixtures (TGT monomer 2.5 μM) were quantified (S7 Fig, S1 Table) and normalized with respect to this value in the absence of any inhibitor.
Nano-ESI-MS analyses were performed as already described in the literature. Briefly, WT-TGT samples were exchanged twice against a 1 M ammonium acetate pH 7.5 buffer using microcentrifuge gel-filtration columns (Zeba 0.5 mL, Thermo Scientific). Next, protein concentration was determined spectrophotometrically at 280 nm (Nano-Drop 2000 spectrophotometer, Thermo Scientific).
Native MS experiments were carried out on a hybrid Q-TOF mass spectrometer (Synapt G2 HDMS, Waters) equipped with an automated chip-based nanoESI source (Triversa Nanomate, Advion Biosciences) operating in the positive ion mode. External calibrations were generated from the multiple charged ions produced by a 2 μM horse heart myoglobin solution diluted in a 1:1 (v/v) water: acetonitrile mixture acidified with 1% (v/v) formic acid (denaturing MS) and singly charged cesium iodide clusters diluted to 2 g∙L^-1 in a 1:1 (v/v) water: isopropanol solution (native MS).
Titration experiments in native conditions (1 M NH4Ac pH 7.5) were next triggered by mixing 2.5 μM TGT monomers with 25 μM of each ligand separately (ratio 1:10). The final DMSO concentration of each mixture never exceeded 0.25% (v/v). Non-covalent TGT dimers and TGT-ligand complexes were preserved in the gas phase according fine-tuned instrumental parameters, improving ion desolvation and transmission while maintaining intact structures (Vc = 80V, Pi = 6 mbar).
Relative quantification of TGT monomers was performed from charge states peak intensities of both monomeric (10 to 14+) and dimeric complexes (15 to 20+), using MassLynx 4.1 (Waters). TGT dimer disruption was determined for each ligand through their destabilization factor (Fig 8) which corresponds to their associated ratio of TGT monomers normalized from the apo-condition (S7 Fig; S1 Table). Standard deviations are calculated here from analytical triplicates. For the sake of reliability and comparability, all these experiments were performed within the same day, from identical experimental and instrumental conditions using the same buffer exchanged TGT batch (frozen and thawed only once).

Z. mobilis TGT [2] = target: T1, Z. mobilis TGT; details: cited from earlier work
Z. mobilis TGT [3] = target: T1, Z. mobilis TGT; set-up: method as in PMID 24955548; details: cited from earlier work
[4] = Ligand dilution in native MS buffer (precipitation); type: physicochemical; details: 1 M NH4Ac pH 7.5
[5] = ionization corrected, data for 1 determined previously

T1 sequence (P28720 whole entry): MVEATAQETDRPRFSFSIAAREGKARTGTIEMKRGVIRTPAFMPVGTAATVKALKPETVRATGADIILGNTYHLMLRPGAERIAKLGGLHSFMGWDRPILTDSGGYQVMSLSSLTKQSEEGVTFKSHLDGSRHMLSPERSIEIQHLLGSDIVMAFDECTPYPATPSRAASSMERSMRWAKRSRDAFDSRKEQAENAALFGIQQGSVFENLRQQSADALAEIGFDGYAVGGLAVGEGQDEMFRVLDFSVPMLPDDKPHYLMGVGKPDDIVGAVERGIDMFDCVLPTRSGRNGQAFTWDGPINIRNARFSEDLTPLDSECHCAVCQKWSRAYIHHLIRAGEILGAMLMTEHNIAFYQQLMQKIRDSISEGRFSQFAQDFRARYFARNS

factor by which 1 is more potent than 3 (Z. mobilis TGT [1]; radio-labeled assay, Ki ratio 1 vs 3) | Ki (Z. mobilis TGT [1]; determined in this study, competitive with respect to tRNA substrate, averaged over three measurements) | Compound | Relative proportion of TGT monomers (TGT homodimer) | effect on TGT dimer stability / monomer proportion, in words (TGT homodimer) | increase of affinity compared to the unsubstituted lin-benzoguanine (factor) (Z. mobilis TGT [2]; Ki ratio) | Ki (Z. mobilis TGT [2]) | -TΔS^0 (Z. mobilis TGT [3]; HEPES buffer) | ΔH^0obs (Z. mobilis TGT [3]; HEPES buffer) | Kd (Z. mobilis TGT [3]; ITC, 298 K) | ΔG^0 (Z. mobilis TGT [3]; ITC) | -TΔS^0 (Z. mobilis TGT [3]; TRIS buffer) | ΔH^0obs (Z. mobilis TGT [3]; TRIS buffer) | -TΔS^0 (Z. mobilis TGT [3]; Tricin buffer) | ΔH^0obs (Z. mobilis TGT [3]; Tricin buffer) | -TΔS^0 (Z. mobilis TGT [3]; [5]) | ΔH^0bind (Z. mobilis TGT [3]; [5]) | protons picked up during binding (Z. mobilis TGT [3]; slope of linear regression) | precipitation upon ligand dilution in buffer [4]
6 | – | CNc1nc2cc3nc(N)[nH]c(=O)c3cc2[nH]1 [Inhibitor 1] | 3.4% | No effect on dimer stability | 70 | 58 ± 36 nM | 34.2 ± 1.9^29 kJ∙mol^-1 | -74.8 ± 1.8^29 kJ∙mol^-1 | 52 ± 7 nM | -41.6 ± 0.3^29 kJ∙mol^-1 | 9.3 ± 0.9^29 kJ∙mol^-1 | -50.9 ± 0.9^29 kJ∙mol^-1 | 25.1 ± 0.3^29 kJ∙mol^-1 | -66.7 ± 0.1^29 kJ∙mol^-1 | 52.0 kJ/mol | -22.4 kcal/mol | 0.89 protons per mole of the formed complex | –
– | 193 ± 41 nM | CNc1nc2c(CCNCC3CCC(C#Cc4cccnc4)CC3)c3nc(N)[nH]c(=O)c3cc2[nH]1 (centres unmarked) [Inhibitor 4] | 5.6% | small effect might be given | – | – | – | – | – | – | – | – | – | – | – | – | – | partial precipitation; also recorded: To a lower extent, a similar phenomenon was also observed

Reference: PMC5395182, “Soaking suggests “alternative facts”: Only co-crystallization discloses major ligand-induced interface rearrangements of a homodimeric tRNA-binding protein indicating a novel mode-of-inhibition” (PLoS ONE, 2017)
